Data as given in ChEMBL document CHEMBL1201862, “PubChem BioAssay data set” (2004).
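Method: 48-hour compound exposure of cells in 96-well plates, five concentrations, linear interpolation of endpoints. GI50: concentration for 50% inhibition of growth.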 Active and inactive are the calls of the source. Cut-off read from the data, not from the text of the source: active = GI50 up to about 1.1 µM and inactive = higher.

Assays:
Assay in all cases: DTP human tumour cell line panel, 48 h
SW-620 = test system: SW-620
T47D = test system: T47D
Hs-578T = test system: Hs-578T
NCI-H522 = test system: NCI-H522
UACC-257 = test system: UACC-257
OVCAR-5 = test system: OVCAR-5
EKVX = test system: EKVX
SK-MEL-28 = test system: SK-MEL-28
RPMI-8226 = test system: RPMI-8226
SK-MEL-2 = test system: SK-MEL-2
TK-10 = test system: TK-10
CAKI-1 = test system: CAKI-1
A549 = test system: A549
NCI-H226 = test system: NCI-H226
M14 = test system: M14
KM12 = test system: KM12
OVCAR-8 = test system: OVCAR-8
HCT-116 = test system: HCT-116
MCF7 = test system: MCF7
MOLT-4 = test system: MOLT-4

| SMILES | GI50 (SW-620) | GI50 (T47D) | GI50 (Hs-578T) | GI50 (NCI-H522) | GI50 (UACC-257) | GI50 (OVCAR-5) | GI50 (EKVX) | GI50 (SK-MEL-28) | GI50 (RPMI-8226) | GI50 (SK-MEL-2) | GI50 (TK-10) | GI50 (CAKI-1) | GI50 (A549) | GI50 (NCI-H226) | GI50 (M14) | GI50 (KM12) | GI50 (OVCAR-8) | GI50 (HCT-116) | GI50 (MCF7) | GI50 (MOLT-4) |
| --- | --- | --- | --- | --- | --- | --- | --- | --- | --- | --- | --- | --- | --- | --- | --- | --- | --- | --- | --- | --- |
| COC(=O)C12OCC34C(CC5C(C)=CC(=O)C(O)C5(C)C3C(O)C1O)OC(=O)C(OC(=O)CC(C)C)C24 (configuration not stated) | 0.002 µM (active) | 0.00146 µM (active) | 0.000164 µM (active) | 0.000352 µM (active) | 0.00284 µM (active) | 0.00325 µM (active) | 0.00313 µM (active) | 0.00134 µM (active) | 0.000371 µM (active) | 0.00281 µM (active) | 0.0444 µM (active) | 0.005 µM (active) | 0.0013 µM (active) | 0.00109 µM (active) | < 0.0381 µM (active) | 0.00166 µM (active) | 0.00206 µM (active) | – | – | – |
| Cc1ccc(/N=N/c2c(C)c(C#N)c(=S)n(C3OC(CO)C(O)C(O)C3O)c2C)cc1 (configuration not stated) | 16 µM (inactive) | 23.3 µM (inactive) | 17 µM (inactive) | – | 63 µM (inactive) | 38.3 µM (inactive) | – | 22.1 µM (inactive) | 46 µM (inactive) | 30.6 µM (inactive) | 63.1 µM (inactive) | 37.2 µM (inactive) | 40.6 µM (inactive) | – | 20.4 µM (inactive) | 41.1 µM (inactive) | – | 25.8 µM (inactive) | 35.6 µM (inactive) | 12.9 µM (inactive) |
| CC1=Nc2ccccc2OC(C)=C1/N=N/c1ccc2[nH]c(C)nc2c1 | > 100 µM (inactive) | 50.9 µM (inactive) | – | > 100 µM (inactive) | > 100 µM (inactive) | > 100 µM (inactive) | > 100 µM (inactive) | > 100 µM (inactive) | > 100 µM (inactive) | > 100 µM (inactive) | > 100 µM (inactive) | 47.1 µM (inactive) | > 100 µM (inactive) | > 100 µM (inactive) | > 100 µM (inactive) | > 100 µM (inactive) | > 100 µM (inactive) | > 100 µM (inactive) | 45.8 µM (inactive) | > 100 µM (inactive) |
| COc1ccc(/C=C2\CCC(CNc3ccc(Br)cc3)C2=O)cc1 (configuration not stated) | 67.3 µM (inactive) | 84.7 µM (inactive) | – | > 10 µM (inactive) | > 100 µM (inactive) | > 100 µM (inactive) | > 100 µM (inactive) | > 100 µM (inactive) | 5.87 µM (inactive) | – | 57.5 µM (inactive) | > 100 µM (inactive) | 93.8 µM (inactive) | > 100 µM (inactive) | 65.8 µM (inactive) | 29.1 µM (inactive) | > 100 µM (inactive) | – | 21.5 µM (inactive) | 34.1 µM (inactive) |
| COc1ccccc1NS(=O)(=O)c1ccc2ncn(NS(=O)(=O)c3ccc(Cl)cc3)c(=O)c2c1 | > 100 µM (inactive) | – | 77.3 µM (inactive) | > 100 µM (inactive) | > 100 µM (inactive) | 63 µM (inactive) | > 100 µM (inactive) | > 100 µM (inactive) | 26.9 µM (inactive) | 45.2 µM (inactive) | > 100 µM (inactive) | > 100 µM (inactive) | 75 µM (inactive) | > 100 µM (inactive) | 5.86 µM (inactive) | 61.4 µM (inactive) | > 100 µM (inactive) | > 100 µM (inactive) | > 100 µM (inactive) | > 100 µM (inactive) |
| O=c1[nH]c(=O)n(COCCO)c2ccsc12 | > 100 µM (inactive) | – | > 100 µM (inactive) | > 100 µM (inactive) | > 100 µM (inactive) | > 100 µM (inactive) | > 100 µM (inactive) | > 100 µM (inactive) | > 100 µM (inactive) | > 100 µM (inactive) | > 100 µM (inactive) | > 100 µM (inactive) | > 100 µM (inactive) | > 100 µM (inactive) | > 100 µM (inactive) | > 100 µM (inactive) | > 100 µM (inactive) | > 100 µM (inactive) | > 100 µM (inactive) | > 100 µM (inactive) |
| CC(=O)Nc1ccccc1SCCSSCCSc1ccccc1NC(C)=O | 39.3 µM (inactive) | 25.6 µM (inactive) | – | 16.8 µM (inactive) | 20.7 µM (inactive) | 31.5 µM (inactive) | 43.3 µM (inactive) | – | 17.9 µM (inactive) | 27.9 µM (inactive) | 34.1 µM (inactive) | 20.8 µM (inactive) | 25.7 µM (inactive) | 31.1 µM (inactive) | 31.5 µM (inactive) | 40.1 µM (inactive) | 38.9 µM (inactive) | 36.2 µM (inactive) | 38.9 µM (inactive) | 24 µM (inactive) |
| COC(=O)Cc1c([C@H]2[C@H](CC(=O)OC)c3ccccc3N2C(C)=O)[nH]c2ccccc12 | > 100 µM (inactive) | > 100 µM (inactive) | > 100 µM (inactive) | 71 µM (inactive) | > 100 µM (inactive) | > 100 µM (inactive) | > 100 µM (inactive) | > 100 µM (inactive) | 33.6 µM (inactive) | > 100 µM (inactive) | > 100 µM (inactive) | > 100 µM (inactive) | 97.7 µM (inactive) | > 100 µM (inactive) | > 100 µM (inactive) | > 100 µM (inactive) | > 100 µM (inactive) | > 100 µM (inactive) | – | 54.8 µM (inactive) |
| COC(=O)c1ccc(NCC2=CC(=O)C=CC2=O)cc1 | 3.75 µM (inactive) | – | 21.4 µM (inactive) | 1.7 µM (inactive) | 12.4 µM (inactive) | 16.7 µM (inactive) | 10.6 µM (inactive) | 15.1 µM (inactive) | 2.59 µM (inactive) | 15.3 µM (inactive) | 10.8 µM (inactive) | 2.4 µM (inactive) | 22.7 µM (inactive) | 17.9 µM (inactive) | 4.06 µM (inactive) | 13.6 µM (inactive) | 13.9 µM (inactive) | 3.74 µM (inactive) | 14.2 µM (inactive) | 3.05 µM (inactive) |
| COc1ccc(C#Cn2nnc3ccccc32)cc1 | > 100 µM (inactive) | – | > 100 µM (inactive) | 48 µM (inactive) | 50.4 µM (inactive) | > 100 µM (inactive) | 32.8 µM (inactive) | > 100 µM (inactive) | 26.1 µM (inactive) | 92 µM (inactive) | > 100 µM (inactive) | 32.1 µM (inactive) | > 100 µM (inactive) | 64.7 µM (inactive) | > 100 µM (inactive) | 96.4 µM (inactive) | > 100 µM (inactive) | > 100 µM (inactive) | 41.8 µM (inactive) | 71.6 µM (inactive) |
| NC(=O)C(=CN1C(=O)CC(=O)NC1=S)C(N)=O | > 100 µM (inactive) | > 100 µM (inactive) | – | – | > 100 µM (inactive) | > 100 µM (inactive) | > 100 µM (inactive) | > 100 µM (inactive) | – | > 100 µM (inactive) | > 100 µM (inactive) | > 100 µM (inactive) | > 100 µM (inactive) | > 100 µM (inactive) | > 100 µM (inactive) | > 100 µM (inactive) | > 100 µM (inactive) | > 100 µM (inactive) | > 100 µM (inactive) | > 100 µM (inactive) |
| CC(C)(C)C(=O)CC(=O)C(F)(F)C(F)(F)C(F)(F)F | 18.8 µM (inactive) | 16 µM (inactive) | 14.6 µM (inactive) | – | 15.3 µM (inactive) | 35.4 µM (inactive) | 15.2 µM (inactive) | 14.1 µM (inactive) | 11.1 µM (inactive) | 16.4 µM (inactive) | 18.2 µM (inactive) | 14.7 µM (inactive) | 22.3 µM (inactive) | 27.8 µM (inactive) | 16 µM (inactive) | 16.7 µM (inactive) | 20.7 µM (inactive) | 18.3 µM (inactive) | – | 17.9 µM (inactive) |
| O=C(Cc1ccccc1)NN1C(=O)/C(=C\c2ccccc2)S/C1=N\c1ccccc1 | > 100 µM (inactive) | > 100 µM (inactive) | > 100 µM (inactive) | – | > 100 µM (inactive) | > 100 µM (inactive) | > 100 µM (inactive) | > 100 µM (inactive) | – | > 100 µM (inactive) | > 100 µM (inactive) | – | > 100 µM (inactive) | > 100 µM (inactive) | > 100 µM (inactive) | > 100 µM (inactive) | > 100 µM (inactive) | > 100 µM (inactive) | > 100 µM (inactive) | > 100 µM (inactive) |
| Cc1nnc(Nc2ccccc2)o1 | > 100 µM (inactive) | > 100 µM (inactive) | – | > 100 µM (inactive) | > 100 µM (inactive) | > 100 µM (inactive) | > 100 µM (inactive) | > 100 µM (inactive) | > 100 µM (inactive) | 70.8 µM (inactive) | > 100 µM (inactive) | > 100 µM (inactive) | > 100 µM (inactive) | > 100 µM (inactive) | > 100 µM (inactive) | > 100 µM (inactive) | > 100 µM (inactive) | > 100 µM (inactive) | > 100 µM (inactive) | > 100 µM (inactive) |
| COc1c2c(cc3nc4ccccc4nc13)CC[C@H](NC(C)=O)c1cc(=O)c(SC)ccc1-2 | 0.582 µM (active) | – | 0.126 µM (active) | 0.275 µM (active) | 1.59 µM (inactive) | 24.5 µM (inactive) | 1.01 µM (active) | 12.7 µM (inactive) | 0.538 µM (active) | 3.05 µM (inactive) | 8.07 µM (inactive) | 5.62 µM (inactive) | 4.29 µM (inactive) | 1.08 µM (active) | 0.55 µM (active) | 0.273 µM (active) | 1.63 µM (inactive) | 0.46 µM (active) | 0.327 µM (active) | 0.555 µM (active) |
